Where a SMILES comes first, the peptide text is derived from it.
Conditions: acidic group

Row | SMILES | pKa
1 | CC(C)c1cccc(=O)c(O)c1 | 7.22
2 | O=C(O)Cc1[nH]c2ccccc2[nH+]1 | 0.2
3 | Cc1cc2nnn(O)c2cc1Cl | 4.57
4 | CCCCSCC(=O)O | 3.81
5 | CN(C)C(=O)CS | 8.1
6 | CCC[NH2+]CCS | 7.92
7 | NC(=O)/C(=N/O)c1ccccc1 | 9.55
8 | Nc1ccc(S(=O)(=O)NCc2ccco2)cc1 | 10.9
9 | CCCCNc1cc[nH+]c(S)n1 | 3.2
10 | Cc1ccc(NN=C(C#N)C#N)cc1 | 6.75
11 | Cc1ccccc1OCC(=O)O | 3.17
12 | C[N+](C)(C)CCc1ccccc1O | 9.57
13 | C[N+]1(CCC(=O)O)CCCCC1 | 3.43
14 | CC(=O)NCc1cc(C)cc(CNC(C)=O)c1O | 9
15 | Oc1ccc(O)c(Br)c1 | 8.67
16 | O=[N+]([O-])c1ccc(-c2nnn[nH]2)cc1 | 3.08
17 | COc1ccc2[nH]c3c(c2c1)CCN=C3C | 14.5
18 | CC(=O)c1ccc(O)c(=O)cc1 | 5.01
19 | CC(=O)c1ccccc1C(=O)O | 4.15
20 | O=C(O)[c+]1cccccc1 | 3.29

Row | SMILES | pKa
21 | Cc1cccc(SCC(=O)O)c1 | 3.52
22 | O=C(O)c1ccc(Cl)cc1Cl | 2.74
23 | Cc1cccnc1/C=N/O | 10.5
24 | O=Cc1cc(Cl)ccc1O | 7.4
25 | Nc1nc2nc[nH]c2c(N)[n+]1[O-] | 9.7
26 | Cc1nc(N)cc(O)[nH+]1 | 1.7
27 | CC1CCCC(C)C1C(=O)O (stereo not drawn) | 4.88
28 | CCCSC(C)C(=O)O (stereo not drawn) | 3.82
29 | NC(=O)Nc1ncnc2nc[nH]c12 | 9.95
30 | CN(C)c1ccc(C(=O)O)cc1 | 4.96
31 | O=C(O)c1cc([N+](=O)[O-])ccc1O | 2.15
32 | O=C1C=CC(=O)c2c(O)cccc21 | 8.7
33 | O=[N+]([O-])c1ccc(/C(=N\O)c2ccccc2)cc1 | 10.8
34 | Cc1cccc(O)c1C | 10.5
35 | COc1cc([N+](=O)[O-])ccc1O | 6.83
36 | Cc1cccc(CCCCCCCC(=O)O)[nH+]1 | 4.6
37 | O=C(O)c1csc([N+](=O)[O-])c1 | 3.24
38 | Cc1nnc(NS(=O)(=O)c2ccc(N)cc2)s1 | 5.46
39 | Oc1cc[nH+]nc1 | 1.07
40 | NCc1ccccc1S(N)(=O)=O | 10.1

Row | SMILES | pKa
41 | Oc1ccc[nH+]c1 | 5.01
42 | CC(=O)c1ccc(O)c([N+](=O)[O-])c1 | 5.09
43 | NS(=O)(=O)c1cccc([N+](=O)[O-])c1 | 9.19
44 | Nc1ccc(S(=O)(=O)Nc2ncccc2O)cc1 | 7.6
45 | Cc1cc([N+](=O)[O-])ccc1O | 7.1
46 | O=C1C=CC(=Nc2ccc(O)cc2)C=C1 | 8.1
47 | O=C(O)C[Se]c1ccccc1 | 3.75
48 | CC(C)(C)CC#CC(=O)O | 2.54
49 | CC1=C(C)C(C(C)C(=O)O)CC1=O (stereo not drawn) | 4.4
50 | Cc1cc(O)nn1-c1ccccc1 | 12.1
51 | O=C(N/N=C/c1ccccc1O)c1ccncc1 | 8.31
52 | Nc1cc(N)c2cccnc2c1O | 10.8
53 | Oc1ccc(O)c2ccccc12 | 9.25
54 | Cc1ccccc1-c1nnn[nH]1 | 4.09
55 | CCCCc1cc(Cl)cc(Cl)c1O | 8.1
56 | CC(=O)c1ccc(O)c(O)c1 | 7.8
57 | CNS(=O)(=O)C(F)(F)F | 7.56
58 | O=C(O)/C=C/c1c[nH]c[nH+]1 | 3.5
59 | Cn1c(=O)[nH]c2nc[nH]c2c1=O | 7.88
60 | Oc1nc2ccccc2c[nH+]1 | 1.3

Same assay, conditions: basic group

Row | SMILES | pKa
61 | COc1ccc(C(O)CNC(C)CC2=C(C)C(C)(C)CC2)cc1 (stereo not drawn) | 8.79
62 | CCC(C)(N)C(=O)[O-] (stereo not drawn) | 9.98
63 | C[n+]1c([S-])ccnc1[S-] | 6.96
64 | O=C(O)Cc1[nH]c2ccccc2[nH+]1 | -4.7
65 | COC(=O)C[C@@H]1[C@@H](C(=O)[O-])NC[C@H]1C(C)O (stereo partly drawn) | 9.41
66 | CN1CC[NH2+]CC1 | 5.05
67 | Cc1nc2ccccc2c(NCCC[NH+](C)C)c1[N+](=O)[O-] | 5.35
68 | CCC(O)CN(C)CC(C)O (stereo not drawn) | 8.9
69 | C#CC(C)Nc1ccccc1 (stereo not drawn) | 3.25
70 | Cc1cc(N)nc(C)n1 | 6.85
71 | Nc1ccc(S(=O)(=O)NCc2ccco2)cc1 | 2.25
72 | CCNCc1ccc(C)cc1 | 10
73 | Cn1ccnc1N=[N+]=[N-] | 4.05
74 | NC1CCc2ccccc2C1 (stereo not drawn) | 9.97
75 | CC(C)N1CCC(NN)CC1 | 9.65
76 | Cc1ccc(NN=C(C#N)C#N)cc1 | -0.83
77 | C1CNCC[NH2+]CCN1 | 6.97
78 | CC(=O)/N=c1\ccccn1C | 7.12
79 | Cn1ncc2c(NCc3ccccc3)ncnc21 | 3.66
80 | Brc1ccc(-c2ncc(-c3ccccc3)o2)cc1 | 0.4
81 | Cc1cc(NN)nc2ccccc12 | 8.35
82 | Cc1ccc(N)cc1Br | 4.02
83 | C[Si](C)(C)CCCN | 10.8
84 | CCOC(=O)CCN(C)C | 8.6
85 | COc1ccc2[nH]c3c(c2c1)CCN=C3C | 9.21

Row | SMILES | pKa
86 | N=C(Nc1ccccc1)Nc1ccccc1 | 9.94
87 | CNNC1CCN(C(C)C)CC1 | 9.1
88 | CN(C)CCCC(=O)Oc1ccc([N+](=O)[O-])cc1 | 9.6
89 | Nc1ncnc([O-])c1N | 9.86
90 | Nc1nc2nc[nH]c2c(N)[n+]1[O-] | 3.7
91 | C#CCCCCN(C)C | 9.24
92 | CC[C@H](C)[C@H](N)C(=O)[O-] | 9.77
93 | COc1cnccc1C=O | 4.45
94 | NC(=O)Nc1ncnc2nc[nH]c12 | 2.35
95 | CN(C)c1ccc(C(=O)O)cc1 | 2.57
96 | Nc1ccnc2c([O-])cccc12 | 10.7
97 | CCc1ccnc2c1ccc1cccnc12 | 5.44
98 | NCC(O)CN | 9.64
99 | NCC(=O)N1CCC[C@H]1C(=O)[O-] (H-Gly-Pro-OH) | 8.49
100 | C(CNCCc1nnn[n-]1)NCCc1nnn[n-]1 | 9.33
101 | COc1ccccc1/N=C/N(C)C | 8.11
102 | COc1ccc(C(O)c2ccccc2)cc1 (stereo not drawn) | -8
103 | COc1cc2c(cc1OC)C13CCN4C1CC1C(=CCOC5CC(=O)N2C3C51)[C@@H]4S(=O)(=O)[O-] (stereo partly drawn) | 3.12
104 | Nc1ccc(C(O)(c2ccccc2)c2ccc(N)cc2)cc1 | 5.83
105 | Cc1nnc(NS(=O)(=O)c2ccc(N)cc2)s1 | 2.19
106 | O=C([O-])[C@@H]1CCCN1 | 10.6
107 | CC(=O)c1ccccc1 | 18.3
108 | Cc1cc(O)n(-c2nc(C)c(C)c([O-])n2)n1 | 10.3
109 | CC(N)CC1CCCCC1 (stereo not drawn) | 10.1
110 | CCNN | 7.95

Row | SMILES | pKa
111 | NCc1ccccc1S(N)(=O)=O | 8.53
112 | Nc1ccc2ccc([N+](=O)[O-])cc2c1 | 3.13
113 | C[Si](C)(C)c1ccc(N)cc1 | 4.36
114 | Nc1ccnc([S-])n1 | 10.6
115 | CN(C)CCC/N=C(\c1ccccc1)c1ccccc1Cl | 9
116 | [NH3+]CCCCCc1ccncc1 | 5.99
117 | CCOCCn1c(CN2CCCN(CCCCn3cc(C(=O)[O-])cn3)CC2)nc2ccccc21 | 9.1
118 | Nc1ccc2[nH]c(CCc3ccccc3)nc2c1 | 7.2
119 | CN1C(=O)N(CCN2CCOCC2)C(=O)C(C)(C2=CCCCC2)C1=O (stereo not drawn) | 5.75
120 | CC(=O)c1ccc(/N=N/c2c(N)n[nH]c2N)cc1 | 3.32
121 | O=C(N/N=C/c1ccccc1O)c1ccncc1 | 3.33
122 | Nc1cc(N)c2cccnc2c1O | 6.96
123 | COC(=O)C(N)CCONC(N)=O (stereo not drawn) | 6.95
124 | CN(C)c1ncc([N+](=O)[O-])s1 | 0.48
125 | CN(C)/C=N/c1ccc(Br)cc1 | 8.1
126 | Cc1nc(N)nc(N)n1 | 4.59
127 | CCCN(CCC)CCCNC(=O)/C=N/[O-] | 10.3
128 | [O-]c1nc([O-])c2[nH]nnc2n1 | 9.3
129 | Cc1ccc(CN2CC(O[Si](C)(C)C)C2)cc1 | 8.24
130 | Cc1cccc2ncccc12 | 5
131 | CC(CN(C)C)C(C#N)(c1ccccc1)c1ccccc1 (stereo not drawn) | 7.9
132 | Cn1c(=O)[nH]c2nc[nH]c2c1=O | 1.19
133 | CNC(=N)N(C)C | 13.6

Source: the pKa sets of Baltruschat and Czodrowski (2020)
